Patent publication US9624209B2, “Substituted phenylureas and phenylamides as vanilloid receptor ligands” (Gruenenthal GmbH, priority 2009, dated 2017)

Columns and labels:
[1] = biological target: T1, vanilloid receptor 1 (VR1/TRPV1 receptor) (Homo sapiens, UniProt Q8NER1); assay: VR1/TRPV1 receptor affinity, NADA stimulus (human); format: cell-based; conditions: N-arachidonoyl dopamine; read-out: Ki (human being) [nM] NADA
T1 construct: expressed in transfected cells; host or cells: CHO K1 cells (ECACC), stably transfected
T1 sequence (Q8NER1 whole entry): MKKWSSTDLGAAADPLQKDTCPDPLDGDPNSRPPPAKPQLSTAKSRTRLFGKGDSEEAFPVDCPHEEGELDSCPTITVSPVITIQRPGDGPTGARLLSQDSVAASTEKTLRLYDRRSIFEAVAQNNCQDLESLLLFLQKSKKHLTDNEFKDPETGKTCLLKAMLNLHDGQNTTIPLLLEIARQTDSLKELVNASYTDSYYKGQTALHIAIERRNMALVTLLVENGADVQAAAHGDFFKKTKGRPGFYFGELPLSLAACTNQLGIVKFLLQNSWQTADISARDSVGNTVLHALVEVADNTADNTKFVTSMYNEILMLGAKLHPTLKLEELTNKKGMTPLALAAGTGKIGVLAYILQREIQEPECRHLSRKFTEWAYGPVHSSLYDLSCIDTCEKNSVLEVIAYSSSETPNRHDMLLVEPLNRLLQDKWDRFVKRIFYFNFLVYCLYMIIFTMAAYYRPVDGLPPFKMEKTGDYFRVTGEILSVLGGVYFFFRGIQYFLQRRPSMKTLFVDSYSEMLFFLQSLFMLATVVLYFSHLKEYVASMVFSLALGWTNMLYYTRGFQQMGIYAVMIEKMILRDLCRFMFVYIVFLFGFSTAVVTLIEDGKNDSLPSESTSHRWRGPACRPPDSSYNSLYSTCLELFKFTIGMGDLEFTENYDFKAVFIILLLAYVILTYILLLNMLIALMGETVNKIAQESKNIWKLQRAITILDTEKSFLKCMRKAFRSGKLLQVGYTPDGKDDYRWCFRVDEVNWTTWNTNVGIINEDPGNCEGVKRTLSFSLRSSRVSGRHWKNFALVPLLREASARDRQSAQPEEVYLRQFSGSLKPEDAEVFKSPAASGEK

[2] = biological target: T1, vanilloid receptor 1 (VR1/TRPV1 receptor); assay: VR1 inhibition, 45° C. heat stimulus (human); format: cell-based, human being; design: key to IC50 (human being) [nM], 45° C.: result in words: AG=agonist; pAG=partial agonist; NE=no effect
[3] = biological target: T1, vanilloid receptor 1 (VR1/TRPV1 receptor); assay: VR1/TRPV1 receptor affinity, capsaicin stimulus (human); format: cell-based, human being; design: key to (f) Ki (human being) [nM] Cap: result in words: AG=agonist; pAG=partial agonist; NE=no effect; conditions: for Ki: Tables 8-12, read-out: (f) Ki (human being) [nM] Cap; for (f) Ki (human being) [nM] Cap: result in words: Tables 8-12

Compound	Ki [3]	further results
CCCCCCn1nc(C(C)(C)C)cc1CNC(=O)C(C)c1ccc(NS(C)(=O)=O)c(F)c1 (stereo not drawn) [Example 5, N-((3-tert-butyl-1-hexyl-1H-pyrazol-5-yl)methyl)-2-(3-fluoro-4-(methylsulfonamido)phenyl)propanamide]		Ki [1]: 4.99 nM
CC(C(=O)NCc1cc(C(C)(C)C)nn1-c1ccc(F)c(Cl)c1)c1ccc(NS(C)(=O)=O)c(F)c1 (stereo not drawn) [Example 18, N-((3-tert-butyl-1-(3-chloro-4-fluorophenyl)-1H-pyrazol-5-yl)methyl)-2-(3-fluoro-4-(methylsulfonamido)phenyl)propanamide]		Ki [1]: 0.22 nM
CC(C(=O)NCc1cc(C(C)(C)C)nn1-c1cccc(Cl)c1)c1ccc(S(=O)(=O)N(C)C)c(F)c1 (stereo not drawn) [Example 56, N-((3-tert-butyl-1-(3-chlorophenyl)-1H-pyrazol-5-yl)methyl)-2-(4-(N,N-dimethylsulfamoyl)-3-fluorophenyl)propanamide]		IC50 (human being) [nM], 45° C.: result in words [2]: AG
CC(C(=O)NCc1cc(C(C)(C)C)nn1-c1cccc(Cl)c1)c1cc(F)c(NS(C)(=O)=O)c(F)c1 (stereo not drawn) [Example 29, N-((3-tert-butyl-1-(3-chlorophenyl)-1H-pyrazol-5-yl)methyl)-2-(3,5-difluoro-4-(methylsulfonamido)phenyl)propanamide]		Ki [1]: 0.08 nM
Cc1c(C(F)(F)F)nn(-c2cccc(Cl)c2)c1CNC(=O)C(C)c1ccc(CNS(C)(=O)=O)c(F)c1 (stereo not drawn) [Example 134, N-((1-(3-chlorophenyl)-4-methyl-3-(trifluoromethyl)-1H-pyrazol-5-yl)methyl)-2-(3-fluoro-4-(methylsulfonamid-methyl)phenyl)propanamide]		IC50 ([2]; read-out: IC50 (human being) [nM], 45° C.): 546 nM
NS(=O)(=O)NCc1ccc(NC(=O)NCc2cc(C(F)(F)F)nn2-c2ccc(F)c(Cl)c2)cc1F [Example B70, 1-[[2-(3-Chloro-4-fluoro-phenyl)-5-(trifluoromethyl)-2H-pyrazol-3-yl]-methyl]-3-[3-fluoro-4-[(sulfamoylamino)-methyl]-phenyl]-urea]	14 nM	
CC(C(=O)NCc1cc(C(F)(F)F)nn1-c1cccc(Cl)c1)c1cc(F)c(CO)c(F)c1 (stereo not drawn) [Example A52, N-[[2-(3-Chlorophenyl)-5-(trifluoromethyl)-2H-pyrazol-3-yl]-methyl]-2-[3,5-difluoro-4-(hydroxymethyl)-phenyl]-propionamide]	40 nM	
N-[[2-(3-Chlorophenyl)-5-cyclopropyl-2H-pyrazol-3-yl]-methyl]-2-[3-fluoro-4-(methanesulfonamido-methyl)-phenyl]-propionamide [Example B4]	61 nM	
CC(C(=O)NCc1cc(C(F)(F)F)nn1-c1cccc(Cl)c1)c1ccc(CNS(C)(=O)=O)c(F)c1 (stereo not drawn) [Example B1, N-[[2-(3-Chlorophenyl)-5-(trifluoromethyl)-2H-pyrazol-3-yl]-methyl]-2-[3-fluoro-4-(methanesulfonamido-methyl)-phenyl]-propionamide]	5 nM	
4-[1-[[2-(3-Chlorophenyl)-5-(trifluoromethyl)-2H-pyrazol-3-yl]-methyl-carbamoyl]-ethyl]-2-fluoro-N-[4-(trifluoromethyl)-phenyl]-benzamide [Example E48]	27 nM	
CCS(=O)(=O)NCc1ccc(NC(=O)NCc2cc(C(C)(C)C)nn2-c2cccc(C)c2)cc1 [Example B92, 1-[[5-tert-Butyl-2-(m-tolyl)-2H-pyrazol-3-yl]-methyl]-3-[4-[[(ethylsulfonyl)amino]-methyl]-phenyl]-urea]	67 nM	
COCCOc1ccc(NC(=O)NCc2cc(C(C)(C)C)nn2-c2cccc(Cl)c2)cc1F [Example A17, 1-[[5-tert-Butyl-2-(3-chlorophenyl)-2H-pyrazol-3-yl]-methyl]-3-[3-fluoro-4-(2-methoxy-ethoxy)-phenyl]-urea]		(f) Ki (human being) [nM] Cap: result in words [3]: AG
CC(C)(C)c1cc(CNC(=O)Nc2ccc(CNS(N)(=O)=O)c(F)c2)n(-c2ccc(F)c(F)c2)n1 [Example B69, 1-[[5-tert-Butyl-2-(3,4-difluoro-phenyl)-2H-pyrazol-3-yl]-methyl]-3-[3-fluoro-4-[(sulfamoylamino)-methyl]-phenyl]-urea]	30 nM	
CS(=O)(=O)NCc1ccc(CC(=O)NCc2cc(C(F)(F)F)nn2-c2cccc(F)c2)cc1F [Example B37, 2-[3-Fluoro-4-(methanesulfonamido-methyl)-phenyl]-N-[[2-(3-fluorophenyl)-5-(trifluoromethyl)-2H-pyrazol-3-yl]-methyl]-acetamide]	46 nM	
Cc1cccc(-n2nc(C(F)(F)F)cc2CNC(=O)Nc2ccc(CNS(C)(=O)=O)c(F)c2)c1 [Example B87, 1-[3-Fluoro-4-(methanesulfonamido-methyl)-phenyl]-3-[[2-(m-tolyl)-5-(trifluoromethyl)-2H-pyrazol-3-yl]-methyl]-urea]	15 nM	
COc1c(F)cc(C(C)C(=O)NCc2cc(C(C)(C)C)nn2-c2ccc(F)c(Cl)c2)cc1F (stereo not drawn) [Example A5, N-[[5-tert-Butyl-2-(3-chloro-4-fluoro-phenyl)-2H-pyrazol-3-yl]-methyl]-2-(3,5-difluoro-4-methoxy-phenyl)-propionamide]		(f) Ki (human being) [nM] Cap: result in words [3]: AG
4-[[[2-(3-Chlorophenyl)-5-(trifluoromethyl)-2H-pyrazol-3-yl]-methyl-carbamoyl]-methyl]-N-(4-fluorophenyl)-benzamide [Example E36]	14 nM	
CCS(=O)(=O)NCc1ccc(NC(=O)NCc2cc(C(C)(C)C)nn2-c2cccc(Cl)c2)cc1 [Example B85, 1-[[5-tert-Butyl-2-(3-chlorophenyl)-2H-pyrazol-3-yl]-methyl]-3-[4-[[(ethylsulfonyl)amino]-methyl]-phenyl]-urea]	16 nM	
CC(C(=O)NCc1cc(C(C)(C)C)nn1-c1cccc(Cl)c1)c1ccc(CNS(N)(=O)=O)c(F)c1 (stereo not drawn) [Example B93, N-[[5-tert-Butyl-2-(3-chlorophenyl)-2H-pyrazol-3-yl]-methyl]-2-[3-fluoro-4-[(sulfamoylamino)-methyl]-phenyl]-propionamide]	4 nM	
CCS(=O)(=O)NCc1ccc(C(C)C(=O)NCc2cc(C(F)(F)F)nn2-c2cccc(Cl)c2)cc1F (stereo not drawn) [Example B17, N-[[2-(3-Chlorophenyl)-5-(trifluoromethyl)-2H-pyrazol-3-yl]-methyl]-2-[4-[[(ethylsulfonyl)amino]-methyl]-3-fluoro-phenyl]-propionamide]	3 nM	
CC(C(=O)NCc1cc(C(F)(F)F)nn1-c1cccc(Cl)c1)c1ccc(CN)c(F)c1 (stereo not drawn) [Example B42, 2-[4-(Aminomethyl)-3-fluoro-phenyl]-N-[[2-(3-chlorophenyl)-5-(trifluoromethyl)-2H-pyrazol-3-yl]-methyl]-propionamide]	46 nM	
